Results published in patent publication US9365522B2, “Pyrazole amide derivative” (AMGEN INC., priority 2015, dated 2016).

Molecular target: T1, human RORγ-LBD (Homo sapiens, UniProt P51449)
T1 construct: made in house; host or cells: E. coli (BL-21)
T1 sequence (P51449 262-518): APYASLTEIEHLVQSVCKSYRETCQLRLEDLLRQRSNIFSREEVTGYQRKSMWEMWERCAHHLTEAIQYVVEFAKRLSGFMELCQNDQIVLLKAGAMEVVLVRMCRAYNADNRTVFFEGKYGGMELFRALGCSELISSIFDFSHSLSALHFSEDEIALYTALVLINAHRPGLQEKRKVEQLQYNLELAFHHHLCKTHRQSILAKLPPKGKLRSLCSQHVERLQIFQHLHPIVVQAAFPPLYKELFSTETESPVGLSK
Assay: ROR gamma coactivator peptide recruitment Alphascreen assay (RORγ-LBD binding to GRIP1 coactivator peptide)
Assay type: biochemical
Conditions: 5 nM human RORγ-LBD, 30 nM 7-β-hydroxycholesterol, 50 nM biotinylated GRIP1 coactivator peptide, overnight incubation at room temperature; read-out: result (pIC50, RORγ coactivator peptide recruitment Alphascreen assay) (converted)
Summary of the method: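 His/Flag-tagged human RORγ-LBD (aa 262-518, E. coli-expressed, 5 nM) with agonist 7-β-hydroxycholesterol (30 nM) and biotinylated GRIP1 LXXLL peptide (50 nM) in HEPES pH 7.4 buffer, 2.5% DMSO. Compound 1-in-2 dilutions; Alphascreen bead signal read after overnight incubation at room temperature; pIC50 calculated.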

| Structure (SMILES) | IC50 |
| --- | --- |
| CC1(CN(CCc2c(Cl)cncc2Cl)C(=O)c2cnn([C@H]3CC[C@](C)(C(=O)O)CC3)c2C(F)(F)F)CCC1 [Example 562, trans-4-(4-((2-(3,5-dichloro-4-pyridinyl)ethyl)((1-methylcyclobutyl)methyl)carbamoyl)-5-(trifluoromethyl)-1H-pyrazol-1-yl)-1-methylcyclohexanecarboxylic acid] | 3.72 nM |
| C[C@]1(CN(CC(=O)c2c(Cl)cncc2Cl)C(=O)c2cnn([C@H]3CC[C@](C)(C(=O)O)CC3)c2C(F)(F)F)CCCO1 [Example 661, trans-4-(4-((2-(3,5-dichloro-4-pyridinyl)-2-oxoethyl)(((2R)-2-methyltetrahydro-2-furanyl)methyl)carbamoyl)-5-(trifluoromethyl)-1H-pyrazol-1-yl)-1-methylcyclohexanecarboxylic acid] | 20.4 nM |
| COc1cc(Cl)c(C(=O)CN(CC2(F)CCCC2)C(=O)c2cnn([C@H]3CC[C@H](CC(=O)O)CC3)c2C(F)(F)F)c(Cl)c1 [Example 888, (trans-4-(4-((2-(2,6-dichloro-4-methoxyphenyl)-2-oxoethyl)((1-fluorocyclopentyl)methyl)carbamoyl)-5-(trifluoromethyl)-1H-pyrazol-1-yl)cyclohexyl)acetic acid] | 3.24 nM |
| C[C@H]1CC[C@H](CN(CC(=O)c2c(Cl)cncc2Cl)C(=O)c2cnn([C@H]3CC[C@](C)(C(=O)O)CC3)c2C(F)(F)F)O1 [Example 705, trans-4-(4-((2-(3,5-dichloro-4-pyridinyl)-2-oxoethyl)(((2R,5S)-5-methyltetrahydro-2-furanyl)methyl)carbamoyl)-5-(trifluoromethyl)-1H-pyrazol-1-yl)-1-methylcyclohexanecarboxylic acid] | 58.9 nM |
| O=C(CN(Cc1ccc(Cl)cc1)C(=O)c1cnn([C@H]2CC[C@H](C(=O)O)CC2)c1C(F)(F)F)c1c(Cl)ccc(F)c1Cl [Example 541, trans-4-(4-((4-chlorobenzyl)(2-(2,6-dichloro-3-fluorophenyl)-2-oxoethyl)carbamoyl)-5-(trifluoromethyl)-1H-pyrazol-1-yl)cyclohexanecarboxylic acid] | 3.16 nM |
| CC1(C)C[C@H]1N(CC(=O)c1c(Cl)cncc1Cl)C(=O)c1cnn([C@H]2CC[C@](C)(C(=O)O)CC2)c1C(F)(F)F [Example 648, trans-4-(4-((2-(3,5-dichloro-4-pyridinyl)-2-oxoethyl)((1R)-2,2-dimethylcyclopropyl)carbamoyl)-5-(trifluoromethyl)-1H-pyrazol-1-yl)-1-methylcyclohexanecarboxylic acid] | 32.4 nM |
| C[C@@]1(CN(CC(=O)c2c(Cl)ccc(F)c2Cl)C(=O)c2cnn([C@H]3CC[C@](C)(C(=O)O)CC3)c2C(F)(F)F)CCCO1 [Example 815, trans-4-(4-((2-(2,6-dichloro-3-fluorophenyl)-2-oxoethyl)(((2S)-2-methyltetrahydro-2-furanyl)methyl)carbamoyl)-5-(trifluoromethyl)-1H-pyrazol-1-yl)-1-methylcyclohexanecarboxylic acid] | 12.9 nM |
| CC1(CN(CC(=O)c2c(Cl)cncc2Cl)C(=O)c2cnn([C@H]3CC[C@H](C(=O)O)C(C)(C)C3)c2C(F)(F)F)CCC1 [Example 825, (1S,4S)-4-(4-((2-(3,5-dichloro-4-pyridinyl)-2-oxoethyl)((1-methylcyclobutyl)methyl)carbamoyl)-5-(trifluoromethyl)-1H-pyrazol-1-yl)-2,2-dimethylcyclohexanecarboxylic acid] | 1.38 nM |
| Cc1cc(Cl)c(C(=O)CN(CC2CCC(C)(C)CC2)C(=O)c2cnn([C@H]3CC[C@@H](C(=O)O)CC3)c2C(F)(F)F)c(Cl)n1 [Example 833, cis-4-(4-((2-(2,4-dichloro-6-methyl-3-pyridinyl)-2-oxoethyl)((4,4-dimethylcyclohexyl)methyl)carbamoyl)-5-(trifluoromethyl)-1H-pyrazol-1-yl)cyclohexanecarboxylic acid] | 5.89 nM |
| CC(C)(C)CN(CC(=O)c1c(Cl)cncc1Cl)C(=O)c1cnn([C@H]2C[C@@H]3[C@H](C2)[C@@H]3C(=O)O)c1C(F)(F)F [Example 770, (1R,3r,5S,6s)-3-(4-((2-(3,5-dichloro-4-pyridinyl)-2-oxoethyl)(2,2-dimethylpropyl)carbamoyl)-5-(trifluoromethyl)-1H-pyrazol-1-yl)bicyclo[3.1.0]hexane-6-carboxylic acid] | 42.7 nM |
| C[C@]1(C(=O)O)CC[C@H](n2ncc(C(=O)N(CC(=O)c3c(Cl)cncc3Cl)CC3(CF)CCC3)c2C(F)(F)F)CC1 [Example 800, trans-4-(4-((2-(3,5-dichloro-4-pyridinyl)-2-oxoethyl)((1-(fluoromethyl)cyclobutyl)methyl)carbamoyl)-5-(trifluoromethyl)-1H-pyrazol-1-yl)-1-methylcyclohexanecarboxylic acid] | 3.02 nM |

Continued, values first:

| IC50 | Structure (SMILES) |
| --- | --- |
| 295 nM | CC1(CN(CCc2c(Cl)cncc2Cl)C(=O)c2cnn([C@H]3CC[C@@H](C(=O)O)CC3)c2C(F)(F)F)CCC1 [Example 560, cis-4-(4-((2-(3,5-dichloro-4-pyridinyl)ethyl)((1-methylcyclobutyl)methyl)carbamoyl)-5-(trifluoromethyl)-1H-pyrazol-1-yl)cyclohexanecarboxylic acid] |
| 2400 nM | CC1(C)CC(CN(CC(=O)c2c(F)cccc2F)C(=O)c2cnn([C@H]3CC[C@@H](C(=O)O)CC3)c2C(F)(F)F)C1 [Example 597, cis-4-(4-((2-(2,6-difluorophenyl)-2-oxoethyl)((3,3-dimethylcyclobutyl)methyl)carbamoyl)-5-(trifluoromethyl)-1H-pyrazol-1-yl)cyclohexanecarboxylic acid] |
| 3630 nM | Cc1cc(C)n(CCN(Cc2ccc(Cl)cc2)C(=O)c2cnn([C@H]3CC[C@H](C(=O)O)CC3)c2C(F)(F)F)c(=O)c1 [Example 544, trans-4-(4-((4-chlorobenzyl)(2-(4,6-dimethyl-2-oxo-1(2H)-pyridinyl)ethyl)carbamoyl)-5-(trifluoromethyl)-1H-pyrazol-1-yl)cyclohexanecarboxylic acid] |
| 5.75 nM | COc1cc(Cl)c(C(=O)CN(CC2(F)CCCC2)C(=O)c2cnn([C@H]3CC[C@](C)(C(=O)O)CC3)c2C(F)(F)F)c(Cl)c1 [Example 584, trans-4-(4-((2-(2,6-dichloro-4-methoxyphenyl)-2-oxoethyl)((1-fluorocyclopentyl)methyl)carbamoyl)-5-(trifluoromethyl)-1H-pyrazol-1-yl)-1-methylcyclohexanecarboxylic acid] |
| 9.55 nM | C[C@]1(CN(CCc2c(Cl)cncc2Cl)C(=O)c2cnn([C@H]3CC[C@](C)(C(=O)O)CC3)c2C(F)(F)F)CCCO1 [Example 681, trans-4-(4-((2-(3,5-dichloro-4-pyridinyl)ethyl)(((2R)-2-methyltetrahydro-2-furanyl)methyl)carbamoyl)-5-(trifluoromethyl)-1H-pyrazol-1-yl)-1-methylcyclohexanecarboxylic acid] |
| 324 nM | CC1(C)CC[C@@H]1N(CC(=O)c1c(Cl)cncc1Cl)C(=O)c1cnn([C@H]2CC[C@@H](C(=O)O)CC2)c1C(F)(F)F [Example 635, cis-4-(4-((2-(3,5-dichloro-4-pyridinyl)-2-oxoethyl)((1S)-2,2-dimethylcyclobutyl)carbamoyl)-5-(trifluoromethyl)-1H-pyrazol-1-yl)cyclohexanecarboxylic acid] |
